From ChEMBL document CHEMBL1221220, “Transport and signaling via the amino acid binding site of the yeast Gap1 amino acid transceptor” (Nat Chem Biol, 2009)
Substitutions are numbered along the chain they refer to. Activity calls are given as the source filed them.

Key:
[1] = system: T1, General amino-acid permease GAP1 (Saccharomyces cerevisiae), P19145 [V381C]; assay: Activation of yeast Gap1 V381C mutant-mediated amino acid uptake at 10 mM
T1 sequence (whole entry): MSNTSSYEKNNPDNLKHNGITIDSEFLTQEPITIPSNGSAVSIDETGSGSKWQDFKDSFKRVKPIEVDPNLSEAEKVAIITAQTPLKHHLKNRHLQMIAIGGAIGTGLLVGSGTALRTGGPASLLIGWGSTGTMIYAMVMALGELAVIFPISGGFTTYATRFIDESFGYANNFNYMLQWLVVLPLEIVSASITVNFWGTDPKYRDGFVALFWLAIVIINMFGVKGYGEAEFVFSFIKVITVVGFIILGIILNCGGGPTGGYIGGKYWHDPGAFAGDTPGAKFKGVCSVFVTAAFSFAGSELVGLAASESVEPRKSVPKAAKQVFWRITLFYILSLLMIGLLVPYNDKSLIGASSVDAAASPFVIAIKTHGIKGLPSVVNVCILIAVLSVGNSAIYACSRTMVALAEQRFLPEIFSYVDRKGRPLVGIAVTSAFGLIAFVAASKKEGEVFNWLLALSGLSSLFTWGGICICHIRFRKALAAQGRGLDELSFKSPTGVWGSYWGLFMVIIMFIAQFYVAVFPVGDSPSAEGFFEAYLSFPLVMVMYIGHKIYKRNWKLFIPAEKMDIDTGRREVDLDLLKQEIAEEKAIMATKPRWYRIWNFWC

[2] = system: T2, General amino-acid permease GAP1 (Saccharomyces cerevisiae), P19145 [G390C]; assay: Activation of yeast Gap1 G390C mutant-mediated amino acid uptake at 10 mM
T2 sequence (whole entry): T1 sequence (whole entry) with C381V, G390C

[3] = system: T3, General amino-acid permease GAP1 (Saccharomyces cerevisiae), P19145 [L383C]; assay: Induction of yeast Gap1 L383C mutant-mediated trehalose activation at 10 mM
T3 sequence (whole entry): T1 sequence (whole entry) with C381V, L383C

[4] = system: T4, General amino-acid permease GAP1 (Saccharomyces cerevisiae), P19145 [M401C]; assay: Induction of yeast Gap1 M401C mutant-mediated trehalose activation at 10 mM
T4 sequence (whole entry): T1 sequence (whole entry) with C381V, M401C

Measured: Activity

NC(=O)NCCC[C@H](N)C(=O)O
inactive: all assays above
